Laboratory results: patent US6991937B2, “Urine cystine quantitation and supersaturation assay” (Litholink Corporation, priority 2001, dated 2006)
Marks after values point to notes of the source that are not given here.

How the values were obtained:
[1] = Dissolution of solid phase cystine by cystine binding drugs in incubation buffer; conditions: for Regression slope of cystine uptake on drug molarity, BUFFER: incubation buffer, 48 hours, 37° C.
Procedure: (§1) Using the same incubation buffer and cystine-dissolving agent systems as for the initial solid phase dissolution assay given in Example 1, increasing amounts of D-penicillamine, tiopronin, or captopril were added to 25 ml aliquots of the incubation buffer. A fixed amount of cystine was added; for tiopronin and D-penicillamine, about 40 mg, and for captopril about 20 mg. […] Incubation was carried out as in Example 1. After 48 hours, the pellet and supernatant were separated by centrifugation, the pellet was dissolved in 25 ml of cystine-dissolving agent, an alkalinizing buffer of 0.1 M sodium carbonate, pH 9.9, (Sigma Aldrich Corp, Catalog # S-7795), to form a final cystine solution. Cystine concentration was determined both in the supernatant and the final cystine solution according to the procedure given in Example 3. This same protocol was repeated using the ten normal urine samples employed in the basic solid phase dissolution study described in Example 1.
(§2) Cystine concentrations in either the incubation buffer or normal urine after removal of the residual solid phase cystine, or the final cystine solution after the dissolution of the solid phase cystine in a cystine-dissolving agent as shown in Example 1 and 2 were measured using the modified cyanide-nitroprusside method for quantifying urinary cystine concentration as reported by Nakagawa and Coe (Nakagawa, Y. and Coe, F. 1999. Clin Chim Acta 289:57–68). A 100 microliter aliquot was mixed with 400 microliters of water and 1 milliliter of 0.01 M sodium phosphate buffer containing 0.15 mol/liter NaCl, pH 7.3 (PBS). After adding 300 microliters of 10% NaCN aqueous solution (w/v), the sample was incubated for twenty minutes at room temperature. Color was developed by adding 100 microliters of 20% sodium nitroprusside aqueous solution (w/v). Within 20 seconds of the sodium nitroprusside addition, color intensity was then measured at 521 nm using a Beckman spectrophotometer (model DU 640), and cystine concentration was calculated by comparison to a standard curve which was prepared with each assay.
(§3) Routine means and t tests and linear regression analysis used standard statistical software (Systat, SPSS Corp., Chicago, Ill.). Differences in slopes of uptake with drugs were assessed by multivariate analysis in which cystine uptake was the dependent variable; drug molarity, the independent variable; either buffer vs urine or drug type, the categorical variable; and probability of homogeneity of slopes between the groups, defined by the categorical variable tested. Simple regression analysis was used to obtain the actual values of the slopes.

[2] = Dissolution of solid phase cystine by cystine binding drugs in normal urine; set-up: species or system human; conditions: for molar proportion of cystine dissolved per drug, urine: normal urine; for Regression slope of cystine uptake on drug molarity, URINE: ten normal urine samples, 48 hours, 37° C.
Procedure: as §1, §2, §3

[3] = general statement; cited from earlier work

Structure (SMILES) | molar proportion of cystine dissolved per drug, buffer [1] [mole/mole] | Regression slope of cystine uptake on drug molarity, BUFFER [1] | molar proportion of cystine dissolved per drug, urine [2] [mole/mole] | Regression slope of cystine uptake on drug molarity, URINE [2] | solubility of cystine in average normal urine [3] [µg/mL]
C[C@H](CS)C(=O)N1CCC[C@H]1C(=O)O [captopril] | 0.36±0.04 | 0.36 ± 0.04# | 0.35±0.01 | 0.35 ± 0.01# | –
CC(S)C(=O)NCC(=O)O (stereo not shown) [tiopronin] | 0.41±0.02 | 0.41 ± 0.02# | 0.36±0.01 | 0.36 ± 0.01 | –
N[C@@H](CSSC[C@H](N)C(=O)O)C(=O)O [cystine] | – | – | – | – | 200 to 400
CC(C)(S)[C@@H](N)C(=O)O [D-penicillamine] | 0.24±0.01 | 0.25 ± 0.01 | 0.21±0.008 | 0.21 ± 0.01 | –
